The results in this text go back to ChEMBL document CHEMBL1240428, “Conventional and microwave assisted synthesis of some new N-[(4-oxo-2-substituted aryl -1, 3-thiazolidine)-acetamidyl]-5-nitroindazoles and its antimicrobial activity” (2010).

In brackets after ≈: the same amount, converted by molar mass.

Assay [1] concerns Aspergillus flavus. As to the kind of experiment: Antifungal activity against Aspergillus flavus at 50 ug/mL. The note with it: read-out: IZ. The class given is functional.
For assay [2], the system named is Aspergillus flavus. As to the kind of experiment: Antifungal activity against Aspergillus flavus at 100 ug/mL. It counts as functional. The note with it: read-out: IZ.
In assay [3] the test system is Penicillium citrinum. As to the kind of experiment: Antifungal activity against Penicillium citrinum at 50 ug/mL. It counts as functional. The note with it: read-out: IZ.
Assay [4] relates to Penicillium citrinum. The assay is described as follows: Antifungal activity against Penicillium citrinum at 100 ug/mL. The note with it: read-out: IZ. The class given is functional.
The subject of assay [5] is Fusarium oxysporum. As to the kind of experiment: Antifungal activity against Fusarium oxysporum at 50 ug/mL. It counts as functional. Particulars: read-out: IZ.
Assay [6] deals with Fusarium oxysporum. As to the kind of experiment: Antifungal activity against Fusarium oxysporum at 100 ug/mL. The class given is functional. The note with it: read-out: IZ.
Assay [7] relates to Aspergillus flavus. The assay is described as follows: Antifungal activity against Aspergillus flavus. The class given is functional.
For assay [8], the system named is Penicillium citrinum. As to the kind of experiment: Antifungal activity against Penicillium citrinum. It counts as functional.
The test system of assay [9] is Fusarium oxysporum. As to the kind of experiment: Antifungal activity against Fusarium oxysporum. It counts as functional.
Assay [10] deals with Escherichia coli. The assay is described as follows: Antibacterial activity against Escherichia coli at 50 ug/mL. The class given is functional. Particulars: read-out: IZ.
Assay [11] has as its system Escherichia coli. As to the kind of experiment: Antibacterial activity against Escherichia coli at 100 ug/mL. It counts as functional. The note with it: read-out: IZ.
Assay [12] relates to Bacillus subtilis. As to the kind of experiment: Antibacterial activity against Bacillus subtilis at 50 ug/mL. It counts as functional. The note with it: read-out: IZ.
The subject of assay [13] is Bacillus subtilis. As to the kind of experiment: Antibacterial activity against Bacillus subtilis at 100 ug/mL. It counts as functional. Particulars: read-out: IZ.
The test system of assay [14] is Escherichia coli. As to the kind of experiment: Antibacterial activity against Escherichia coli. The class given is functional.
Assay [15] relates to Bacillus subtilis. As to the kind of experiment: Antibacterial activity against Bacillus subtilis. It counts as functional.
In assay [16] the test system is Salmonella typhi. As to the kind of experiment: Antibacterial activity against Salmonella typhi.
Assay [17] has as its system Salmonella typhi. The assay is described as follows: Antibacterial activity against Salmonella typhi at 50 ug/mL. The note with it: read-out: IZ.
For assay [18], the system named is Salmonella typhi. The assay is described as follows: Antibacterial activity against Salmonella typhi at 100 ug/mL. The note with it: read-out: IZ.

As to `COC1=CC(=O)C[C@@H](C)[C@]12Oc1c(Cl)c(OC)cc(OC)c1C2=O` [GRISEOFULVIN], the zone of inhibition at 50 µg/mL in assay [1] worked out at 27 mm; in assay [3], 25 mm; in assay [5], 28 mm. For the same compound, the zone of inhibition at 100 µg/mL is 30 mm in assay [2], 28 mm in assay [4] and 32 mm in assay [6]. The MIC in assay [7] is 9 µg/mL (≈ 25.5 µM); in [8], 11 µg/mL (≈ 31.2 µM); in assay [9], 6 µg/mL (≈ 17 µM).

For `O=C(Cn1ncc2cc([N+](=O)[O-])ccc21)NN1C(=O)CSC1c1cccc(Br)c1` (stereo not given), the zone of inhibition at 50 µg/mL in assay [10] is 20.2 mm; in assay [12] it was 16.9 mm; in assay [1], 20 mm; in [3], 18 mm; in assay [5], 20.8 mm; in [17] it was 18 mm. In addition, the zone of inhibition at 100 µg/mL came to 23 mm in assay [11]; 21.4 mm in assay [13]; 22.8 mm in [2]; 22 mm in assay [4]; 23.7 mm in assay [6]; 21.9 mm in assay [18]. Moreover, the MIC was found to be 15 µg/mL (≈ 31.5 µM) in assay [14]; 18 µg/mL (≈ 37.8 µM) in assay [15]; 17 µg/mL (≈ 35.7 µM) in assay [7]; 20 µg/mL (≈ 42 µM) in assay [8]; 13 µg/mL (≈ 27.3 µM) in [9]; 17 µg/mL (≈ 35.7 µM) in [16].

For the compound `O=C(Cn1ncc2cc([N+](=O)[O-])ccc21)N/N=C/c1ccccc1`, the zone of inhibition at 50 µg/mL in assay [10] was determined as 14 mm; in assay [12] it was 11.5 mm; in assay [1] it was 13.6 mm; in assay [3] it was 11.5 mm; in assay [5], 15 mm; in assay [17], 12.7 mm. In addition, the zone of inhibition at 100 µg/mL was 16.4 mm in assay [11]; 14.8 mm in assay [13]; 16.7 mm in assay [2]; 15.5 mm in assay [4]; 17.4 mm in assay [6]; 16 mm in assay [18]. Further, the MIC was 22 µg/mL (≈ 68 µM) in [14]; 30 µg/mL (≈ 92.8 µM) in assay [15]; 20 µg/mL (≈ 61.9 µM) in [7]; 30 µg/mL (≈ 92.8 µM) in assay [8]; 17 µg/mL (≈ 52.6 µM) in [9]; 22 µg/mL (≈ 68 µM) in [16].

With `CN(C)c1ccc(C2SCC(=O)N2NC(=O)Cn2ncc3cc([N+](=O)[O-])ccc32)cc1` (stereo not given), the zone of inhibition at 50 µg/mL in assay [10] was determined as 13.5 mm; in [12], 10.4 mm; in assay [1], 12.6 mm; in assay [3] it was 11.4 mm; in [5] it was 13.9 mm; in assay [17], 11.5 mm. Moreover, the zone of inhibition at 100 µg/mL in assay [11] turned out to be 16 mm; in [13], 13.8 mm; in [2], 15.4 mm; in [4], 14.5 mm; in assay [6], 16.8 mm; in assay [18] it was 14.9 mm. In addition, the minimal inhibitory concentration (MIC) in assay [14] is 22 µg/mL (≈ 49.9 µM); in assay [15] it was 36 µg/mL (≈ 81.7 µM); in assay [7], 22 µg/mL (≈ 49.9 µM); in assay [8], 30 µg/mL (≈ 68.1 µM); in [9], 18 µg/mL (≈ 40.9 µM); in assay [16], 25 µg/mL (≈ 56.8 µM).

For the compound `O=C(Cn1ncc2cc([N+](=O)[O-])ccc21)N/N=C/c1ccc(Cl)cc1`, the zone of inhibition at 50 µg/mL was 19 mm in [10]; 16.8 mm in assay [12]; 20 mm in assay [1]; 16.8 mm in assay [3]; 20.8 mm in [5]; 18 mm in assay [17]. The zone of inhibition at 100 µg/mL amounted to 21.9 mm in assay [11]; 20.1 mm in [13]; 22.7 mm in [2]; 21.4 mm in assay [4]; 22.9 mm in assay [6]; 21.7 mm in assay [18]. Besides, the MIC stood at 17 µg/mL (≈ 47.5 µM) in assay [14]; 18 µg/mL (≈ 50.3 µM) in assay [15]; 17 µg/mL (≈ 47.5 µM) in assay [7]; 20 µg/mL (≈ 55.9 µM) in assay [8]; 13 µg/mL (≈ 36.3 µM) in [9]; 17 µg/mL (≈ 47.5 µM) in assay [16].

Turning to `O=C(Cn1ncc2cc([N+](=O)[O-])ccc21)NN1C(=O)CSC1c1ccccc1Br` (stereo not given), the zone of inhibition at 50 µg/mL came out at 19.2 mm in assay [10]; 16 mm in assay [12]; 18.8 mm in assay [1]; 17.2 mm in assay [3]; 19.8 mm in [5]; 17.2 mm in [17]. Moreover, the zone of inhibition at 100 µg/mL came out at 21.8 mm in [11]; 20.5 mm in assay [13]; 21.7 mm in assay [2]; 21 mm in [4]; 22.6 mm in assay [6]; 21 mm in [18]. The MIC in [14] was determined as 17 µg/mL (≈ 35.7 µM); in assay [15], 20 µg/mL (≈ 42 µM); in assay [7], 17 µg/mL (≈ 35.7 µM); in assay [8] it was 20 µg/mL (≈ 42 µM); in assay [9], 13 µg/mL (≈ 27.3 µM); in [16], 17 µg/mL (≈ 35.7 µM).

Regarding `Cc1ccc(/C=N/NC(=O)Cn2ncc3cc([N+](=O)[O-])ccc32)cc1`, the zone of inhibition at 50 µg/mL in [10] is 9 mm; in assay [12], 6 mm; in assay [1], 8 mm; in assay [3] it was 7.1 mm; in assay [5], 10.8 mm; in assay [17], 7 mm. Moreover, the zone of inhibition at 100 µg/mL in assay [11] was 11 mm; in [13], 9 mm; in assay [2] it was 11 mm; in assay [4], 10 mm; in assay [6] it was 12.6 mm; in assay [18] it was 10 mm. The MIC in [14] was 31 µg/mL (≈ 91.9 µM); in assay [15] it was 42 µg/mL (≈ 125 µM); in assay [7], 30 µg/mL (≈ 88.9 µM); in assay [8], 38 µg/mL (≈ 113 µM); in assay [9] it was 25 µg/mL (≈ 74.1 µM); in [16], 34 µg/mL (≈ 101 µM).

Consider `CN[C@@H]1[C@H](O[C@H]2[C@H](O[C@H]3[C@H](O)[C@@H](O)[C@H](N=C(N)N)[C@@H](O)[C@@H]3N=C(N)N)O[C@@H](C)[C@]2(O)C=O)O[C@@H](CO)[C@H](O)[C@H]1O` [STREPTOMYCIN], for which the values for the zone of inhibition at 50 µg/mL in [10], in [12] and in [17] were 26 mm, 23 mm and 25 mm, respectively. For the same compound, the figures for the zone of inhibition at 100 µg/mL in assay [11], in assay [13] and in assay [18] were 30 mm, 27 mm and 28 mm, respectively. Further, the MIC was found to be 8 µg/mL (≈ 13.8 µM) in assay [14], 12 µg/mL (≈ 20.6 µM) in assay [15] and 10 µg/mL (≈ 17.2 µM) in [16].

Consider `COc1ccccc1/C=N/NC(=O)Cn1ncc2cc([N+](=O)[O-])ccc21`, for which the zone of inhibition at 50 µg/mL in [10] turned out to be 11.5 mm; in assay [12] it was 9 mm; in assay [1], 11 mm; in assay [3] it was 9.1 mm; in assay [5], 12.6 mm; in [17] it was 9.8 mm. Also, the zone of inhibition at 100 µg/mL in assay [11] was found to be 14 mm; in assay [13], 12.8 mm; in assay [2], 14 mm; in assay [4], 12.8 mm; in [6], 15.2 mm; in assay [18], 13.5 mm. In addition, the MIC was determined as 27 µg/mL (≈ 76.4 µM) in [14]; 38 µg/mL (≈ 108 µM) in assay [15]; 23 µg/mL (≈ 65.1 µM) in [7]; 35 µg/mL (≈ 99.1 µM) in assay [8]; 20 µg/mL (≈ 56.6 µM) in [9]; 30 µg/mL (≈ 84.9 µM) in [16].

Turning to `Cc1ccc(C2SCC(=O)N2NC(=O)Cn2ncc3cc([N+](=O)[O-])ccc32)cc1` (stereo not given), the zone of inhibition at 50 µg/mL in [10] amounted to 12 mm; in assay [12], 9 mm; in [1], 11.1 mm; in assay [3], 10 mm; in assay [5], 12.9 mm; in [17] it was 10.1 mm. The zone of inhibition at 100 µg/mL turned out to be 14.8 mm in assay [11]; 12.2 mm in assay [13]; 14 mm in [2]; 13.2 mm in [4]; 15.4 mm in assay [6]; 13.3 mm in [18]. The MIC in [14] came to 25 µg/mL (≈ 60.8 µM); in assay [15], 40 µg/mL (≈ 97.2 µM); in [7], 23 µg/mL (≈ 55.9 µM); in assay [8], 32 µg/mL (≈ 77.8 µM); in [9], 20 µg/mL (≈ 48.6 µM); in assay [16] it was 30 µg/mL (≈ 72.9 µM).

For `O=C(Cn1ncc2cc([N+](=O)[O-])ccc21)NN1C(=O)CSC1c1ccccc1O` (stereo not given), the zone of inhibition at 50 µg/mL came to 18.4 mm in assay [10]; 14.7 mm in assay [12]; 17.3 mm in assay [1]; 16 mm in assay [3]; 18.5 mm in assay [5]; 16 mm in assay [17]. In addition, the zone of inhibition at 100 µg/mL in [11] amounted to 20.5 mm; in assay [13] it was 18.9 mm; in assay [2] it was 20.4 mm; in assay [4], 19.7 mm; in assay [6] it was 21.4 mm; in [18], 19.9 mm. The MIC in assay [14] was found to be 16 µg/mL (≈ 38.7 µM); in assay [15], 21 µg/mL (≈ 50.8 µM); in assay [7], 18 µg/mL (≈ 43.5 µM); in assay [8], 22 µg/mL (≈ 53.2 µM); in assay [9], 15 µg/mL (≈ 36.3 µM); in assay [16], 17 µg/mL (≈ 41.1 µM).

By MIC is commonly meant the least concentration at which growth counts as inhibited. A high value points to a need for much substance.
